How the values were obtained:
[1] = test system: mRNA transcript for the firefly (Photinus pyralis) luciferase gene; assay: Mouse in vivo evaluation of efficacy (luciferase siRNA LNP, LSL-Luc transgenic mice, IVIS imaging); conditions: RDV containing the compound + Luc siRNA, tail vein, 0.1 to 0.5 mg/kg siRNA, 48 hours post dose; compared with RDV containing octyl-CLinDMA (OCD); FIG. 1
Protocol: LNPs utilizing Compounds 1-12, in the nominal compositions described immediately above, were evaluated for in vivo efficacy. The siRNA targets the mRNA transcript for the firefly (Photinus pyralis) luciferase gene (Accession #M15077). […] The in vivo luciferase model employs a transgenic mouse in which the firefly luciferase coding sequence is present in all cells. ROSA26-LoxP-Stop-LoxP-Luc (LSL-Luc) transgenic mice licensed from the Dana Farber Cancer Institute are Induced to express the Luciferase gene by first removing the LSL sequence with a recombinant Ad-Cre virus (Vector Biolabs). Due to the organotropic nature of the virus, expression is limited to the liver when delivered via tail vein injection. Luciferase expression levels in liver are quantitated by measuring light output, using an IVIS imager (Xenogen) following administration of the luciferin substrate (Caliper Life Sciences). Pre-dose luminescence levels are measured prior to administration of the RDVs. Luciferin in PBS (15 mg/mL) is intraperitoneally (IP) injected in a volume of 150 μL. After a four minute incubation period mice are anesthetized with isoflurane and placed in the IVIS imager. The RDVs (containing siRNA) in PBS vehicle were tail vein injected n a volume of 0.2 mL. […] In vivo efficacy results are expressed as % inhibition of luminescence relative to pre-dose luminescence levels. […]

[2] = Rat in vivo toxicity: survival after LNP dosing; conditions: for rats that failed to survive 48 hours: 3 mg/kg
[3] = Determination of cationic lipid levels in rat liver (LC/MS-MS); format: in vivo; conditions: rats dosed with RDV containing the compound; compared with RDV containing DLinKC2DMA (Compound 20) or MC3 (Compound 21); FIG. 3
Protocol: Liver tissue was weighed into 20-ml vials and homogenized in 9 v/w of water using a GenoGrinder 2000 (OPS Diagnostics, 1600 strokes/min, 5 min). A 50 μL aliquot, of each tissue homogenate was mixed with 300 μL of extraction/protein precipitating solvent (50/50 acetonitrile/methanol containing 500 nM internal standard) and the plate was centrifuged to sediment precipitated protein. A volume of 200 μL of each supernatant was then transferred to separate wells of a 96-well plate and 10 μl samples were directly analyzed by LC/MS-MS.
Standards were prepared by spiking known amounts of a methanol stock solution of compound into untreated rat liver homogenate (9 vol water/weight liver). Aliquots (50 μL) each standard/liver homogenate was mixed with 300 μL of extraction/protein precipitating solvent (50/50 acetonitrile/methanol containing 500 nM internal standard) and the plate was centrifuged to sediment precipitated protein. A volume of 200 μL of each supernatant was transferred to separate wells of a 96-well plate and 10 μl of each standard was directly analyzed by LC/MS-MS.
Absolute quantification versus standards prepared and extracted from liver homogenate was performed using an Aria LX-2 HPLC system (Thermo Scientific) coupled to an API 4000 triple quadrupole mass spectrometer (Applied Biosystems). […]

SMILES | in vivo efficacy (% inhibition of luminescence relative to pre-dose luminescence levels) [1] | rats that survived at 48 hours post dose ([2]; female, Sprague-Dawley (Crl:CD(SD)), rat, in vivo, 48 h) | cationic lipid liver levels [3] | rats that failed to survive 48 hours [2]
CCCCC/C=C\C/C=C\CCCCCCCCOC[C@H](CCCCCCCCC)N(C)C [Compound 1, (2S)—N,N-dimethyl-1-[(9Z,12Z)-octadeca-9,12-dien-1-yloxy]undecan-2-amine] | Greater efficacy | 1 out of 4 | lower | –
CCCCC/C=C\C/C=C\CCCCCCCCC1(CCCCCCCC/C=C\C/C=C\CCCCC)OCC(CCN(C)C)O1 (centres unmarked) [Compound 20, DLinKC2DMA] | – | – | – | 3 out of 4
CCCCC/C=C\C/C=C\CCCCCCCCC(CCCCCCCC/C=C\C/C=C\CCCCC)OC(=O)CCCN(C)C [Compound 21, MC3] | – | – | – | 2 out of 4
